Test results taken from patent US11813279B2, “Compositions for cancer therapy and methods” (AIM IMMUNOTECH INC., priority 2018, dated 2023).
Like-named read-outs stand apart in the source and are kept apart here. Marks after values point to notes of the source that are not given here.

What was measured:
[1] = tested on: locally advanced and metastatic pancreatic carcinoma; conditions: first line therapy; n = 171 per arm; cited from earlier work
pancreatic carcinoma [2] = assay: Second line therapy following progression on FOLFIRINOX (literature studies); type: in vivo, human; conditions: Overall (mean)
Text: Overall Survival (OS) increased from 6.8 months with Gemcitabine to 11.1 months with FOLFIRINOX (p<0.001). However, the Complete Response Rate (CR) was only 0.6%.

pancreatic carcinoma [3] = conditions: second line, cited from earlier work
[4] = tested on: human renal cell carcinoma xenografts (786-0); conditions: Hubbell, 1990, cited from earlier work
B16-F10 melanoma tumors = conditions: Day 30, n = 10; for Number of Complete Responses (CR): RECIST v1.1
Description: Rintatolimod together with anti-PD-L1 antibodies were tested for anti-tumor activity against established subcutaneous B16 melanoma tumors in C57BL/6 mice. Mice (10 animals per group) were inoculated with 0.4×10E6 B16-F10 tumor cells in their shaved rear flanks. Seven days later (when tumors reached 0.3 to 0.5 cm in their largest diameter), mice were randomized for tumor sizes, and individually tagged and were allocated to the following six treatment groups: • No treatment (negative controls) • Rintatolimod alone 100 μg/dose 4× • Rintatolimod alone 250 μg/dose 4× • Anti-PD-L1 mAb alone • Rintatolimod 100 μg/dose 4× plus anti-PD-L1 mAb • Rintatolimod 250 μg/dose 4× plus anti-PD-L1 mAb
Rintatolimod was injected intravenously at 100 or 250 micrograms/dose and was repeated 4 times, 5 days apart. Anti-PD-L1 mAb (clone 10F.9G2, BioXCell) was administered intraperitoneally on Days 1 and 3 after each rintatolimod injection at a 200 microgram/dose. Tumors were measured 3 times per week using a set of calipers, taking measurement of 2 opposing diameters and were recorded as tumor areas.
Results were presented as tumor sizes for individual mice throughout time of therapy, average tumor size in each group and survival up to Day 30 (time to euthanasia).
[sequence] and anti-PD-L1 antibodies were tested for anti-tumor activity against established subcutaneous B16 melanoma tumors in C57BL/6 mice. Briefly, mice (10 animals per group) were inoculated with 0.4×10E6 (i.e., 400,000) B16-F10 tumor cells in their shaved rear flanks. Seven days later, mice were randomized to six treatment groups as follows: (Group 1) No treatment (negative controls); (Group 2) [sequence] alone 100 μg/dose 4λ; (Group 3) [sequence] alone 250 μg/dose 4λ; (Group 4) Anti-PD-L1 mAb alone; (Group 5) [sequence] 100 μg/dose 4× plus anti-PD-L1 mAb; (Group 6) [sequence] 250 μg/dose 4× plus anti-PD-L1 mAb. mAb refers to monoclonal antibody.
[sequence] was injected IV at 100 or 250 μg/dose 4 times, 5 days apart. Anti-PD-L1 mAb was administered IP on Days 1 and 3 after each [sequence] dose at 200 μg/dose. Tumors were measured 3 times per week using calipers, measuring 2 opposing diameters. […] Results were presented as tumor sizes for individual mice throughout time of therapy up to Day 30.

[5] = tested on: human renal cell carcinoma xenografts (786-0); assay: Human renal cell carcinoma (786-0) xenografts in nude mice; type: in vivo; conditions: monotherapy
[6] = tested on: human bladder tumor xenografts; assay: Human bladder tumor xenografts in nude mice; type: in vivo
pancreatic tumors = type: in vivo, mice; conditions: n = 8 each
Text: This is highly relevant for improving the likelihood of an antitumor response to checkpoint blockade.
See, FIG. 4, panels labeled “Time-to-tumor progression.”

For `Nc1ccn([C@@H]2O[C@H](CO)[C@@H](O)C2(F)F)c(=O)n1` [Gemcitabine], the “Complete Response Rates (CR) (%)” value [1] is given as “(0) %”, the “Complete Response Rates (CR) n” value [1] is given as 0 n and the “Overall Survival (OS) (months)” value [1] is given as 6.8 months. For the same compound, the “Partial Response Rates (PR) (%)” value [1] was “(9.4) %”, the “Partial Response Rates (PR) n” value [1] was 16 n and the “Progression Free Survival (PFS) (months)” value [1] was 3.3 months. For the same compound, the “Partial Response Rates (PR) (%)” value (pancreatic carcinoma [2]; weighted average) was 6.4%*, the “Progression Free Survival (PFS) (months)” value (pancreatic carcinoma [2]; weighted average) was 2.24* months and the “Overall Survival (OS) (months)” value (pancreatic carcinoma [2]; weighted average based on n in each study) was 4.05* months. The “Progression Free Survival (PFS) (months)” value (pancreatic carcinoma [3]; Gilabert, et al. 2017, 72 patients) was 2.5 months, the “Overall Survival (OS) (months)” value (pancreatic carcinoma [3]; Viaud, et al 2017, 96 patients) was 3.7 months and the “Progression Free Survival (PFS) (months)” value (pancreatic carcinoma [3]; Viaud, et al 2017) was 2.1 months. For the same compound, the “Overall Survival (OS) (months)” value (pancreatic carcinoma [3]; da Rocha, et al. 2015, 20 patients) was 5.7 months and the “Progression Free Survival (PFS) (months)” value (pancreatic carcinoma [3]; da Rocha, et al. 2015) was 2.0 months.
For “polyriboinosinic: polyribocytidylic(12:1)uridylic acid”, the tumor growth inhibition ([4]; p<0.001) is listed as “statistically significant”, the survival ([4]; p<0.002) is listed as “statistically significant” and the “Number of Partial Responses (PR)” value (B16-F10 melanoma tumors; rintatolimod 100 μg/dose 4× IV) is listed as 0. For the same compound, the “Total # Tumor Responses CR + PR” value (B16-F10 melanoma tumors; rintatolimod 100 μg/dose 4× IV) was 0, the “Number of Complete Responses (CR)” value (B16-F10 melanoma tumors; rintatolimod 100 μg/dose 4× IV) was 0 and the “Number of Partial Responses (PR)” value (B16-F10 melanoma tumors; rintatolimod 250 μg/dose 4× IV) was 0. The “Total # Tumor Responses CR + PR” value (B16-F10 melanoma tumors; rintatolimod 250 μg/dose 4× IV) was 0, the “Number of Complete Responses (CR)” value (B16-F10 melanoma tumors; rintatolimod 250 μg/dose 4× IV) was 0 and the tumor regression [5] was “tumor regression was observed in each mouse”. For the same compound, the “mice free of residual tumor” value ([5]; while 100% of the control group had died) was 90%, the “growth of human bladder tumor xenografts” value [6] was “significantly inhibited” and the “Increased Survival Over Control” value (pancreatic tumors; difference to control (33)) was 0 days. The “Time to Progression Median-Days” value (pancreatic tumors; initial results) was 33 days.
